In ChEMBL document CHEMBL4825708 (J Med Chem, 2021):
Converted amounts (≈) assume the structure as drawn.

Tests used:
CYP2D6 = CYP2D6 (Homo sapiens, UniProt P10635); experiment: Time dependent inhibition of CYP2D6 in human liver microsomes using dextromethorphan as substrate incubated for 10 mins by LC-MS/MS analysis
[1] = Volume of distribution at steady state in Sprague-Dawley rat at 1 mg/kg, iv or po measured after 0.033 to 24 hrs by LC/MS/MS analysis; conditions: in vivo
CYP3A4 [2] = target: T1, CYP3A4 (Homo sapiens, UniProt P08684); experiment: Time dependent inhibition of CYP3A4 in human liver microsomes using midazolam as substrate incubated for 10 mins by LC-MS/MS analysis
[3] = Volume of distribution at steady state in Beagle dog at 1 mg/kg, iv or po measured after 0.033 to 24 hrs by LC/MS/MS analysis; conditions: in vivo
in vivo [4] = conditions: Sprague-Dawley, rat, po, 100 mg/kg
[5] = target: Voltage-gated inwardly rectifying potassium channel KCNH2 (Homo sapiens, UniProt Q12809); experiment: Inhibition of human ERG expressed in HEK293 cells incubated for 5 mins by patch clamp assay
in vitro [6] = conditions: mouse, mouse liver microsomes
[7] = Half life in Beagle dog at 1 mg/kg, iv or po measured after 0.033 to 24 hrs by LC/MS/MS analysis; conditions: in vivo
Cytochrome P450 2C19 = Cytochrome P450 2C19 (Homo sapiens, UniProt P33261); experiment: Reversible inhibition of CYP2C19 in human liver microsomes using (S)-Mephenytoin as substrate preincubated for 40 mins followed by NADPH addition by LC/MS/MS analysis
[8] = Half life in Sprague-Dawley rat at 1 mg/kg, iv or po measured after 0.033 to 24 hrs by LC/MS/MS analysis; conditions: in vivo
in vivo [9] = conditions: cynomolgus monkey, po, 1 mg/kg
in vitro [10] = conditions: human, microsomes
CYP1A2 = target: T2, CYP1A2 (Homo sapiens, UniProt P05177); experiment: Time dependent inhibition of CYP1A2 in human liver microsomes using phenacetin as substrate incubated for 30 mins by LC-MS/MS analysis
T2 sequence (P05177 whole entry): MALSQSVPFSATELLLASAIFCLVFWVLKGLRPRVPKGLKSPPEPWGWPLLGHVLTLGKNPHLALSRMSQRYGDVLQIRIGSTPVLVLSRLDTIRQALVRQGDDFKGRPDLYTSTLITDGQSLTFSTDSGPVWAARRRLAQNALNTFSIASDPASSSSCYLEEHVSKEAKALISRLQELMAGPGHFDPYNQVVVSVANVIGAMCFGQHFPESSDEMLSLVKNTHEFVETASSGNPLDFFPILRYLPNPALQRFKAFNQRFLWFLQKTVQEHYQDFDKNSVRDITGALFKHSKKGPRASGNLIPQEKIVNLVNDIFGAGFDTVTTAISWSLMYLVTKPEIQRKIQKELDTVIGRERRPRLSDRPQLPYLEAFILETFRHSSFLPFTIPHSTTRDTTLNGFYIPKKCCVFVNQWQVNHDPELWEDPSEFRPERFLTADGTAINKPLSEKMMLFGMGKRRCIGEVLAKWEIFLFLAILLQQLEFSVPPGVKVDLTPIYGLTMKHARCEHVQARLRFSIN

in vitro [11] = conditions: dog, dog hepatocytes
in vitro [12] = conditions: dog, dog liver microsomes
Estrogen receptor [13] = target: T3, Estrogen receptor (Homo sapiens, UniProt P03372); conditions: mcf7
T3 sequence (P03372 whole entry): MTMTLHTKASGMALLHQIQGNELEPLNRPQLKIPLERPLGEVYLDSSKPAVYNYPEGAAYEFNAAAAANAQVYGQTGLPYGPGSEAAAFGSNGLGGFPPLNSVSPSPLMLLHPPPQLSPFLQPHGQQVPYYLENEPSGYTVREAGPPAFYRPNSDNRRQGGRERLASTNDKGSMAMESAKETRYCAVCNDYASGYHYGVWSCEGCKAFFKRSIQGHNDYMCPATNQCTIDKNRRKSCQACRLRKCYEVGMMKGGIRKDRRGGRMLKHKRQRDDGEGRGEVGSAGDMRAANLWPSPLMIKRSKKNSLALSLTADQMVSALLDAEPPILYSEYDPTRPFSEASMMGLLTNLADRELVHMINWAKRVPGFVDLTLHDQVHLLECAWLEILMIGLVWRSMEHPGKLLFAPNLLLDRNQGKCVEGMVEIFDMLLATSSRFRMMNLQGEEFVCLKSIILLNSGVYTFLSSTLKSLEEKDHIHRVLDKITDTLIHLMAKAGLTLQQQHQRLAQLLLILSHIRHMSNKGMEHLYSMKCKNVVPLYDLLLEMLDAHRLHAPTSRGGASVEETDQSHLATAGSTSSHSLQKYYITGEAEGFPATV
Description: Induction of estrogen receptor degradation in human MCF7 cells incubated for 4 hrs by Alexafluor -488 conjugate anti-mouse IgG staining based fluorescence method

in vivo [14] = conditions: beagle, dog, po, 1 mg/kg
MCF7 = experiment: cells; conditions: Homo sapiens, MCF7, 72 h
Description: Antiproliferative activity against human MCF-7 cells incubated for 72 hrs by Cell-titer Glo assay

[15] = Half life in cynomolgus monkey at 1 mg/kg, iv or po measured after 0.033 to 24 hrs by LC/MS/MS analysis; conditions: in vivo
in vitro [16] = conditions: rat, hepatocytes
in vitro [17] = conditions: human, hepatocytes
in vivo [18] = conditions: cynomolgus monkey, iv, 1 mg/kg
in vitro [19] = conditions: rat, microsomes
in vivo [20] = conditions: cynomolgus monkey, po, 100 mg/kg
[21] = Distribution coefficient, logD of the compound at pH 7.4; conditions: octanol/water
in vitro [22] = conditions: mouse, mouse hepatocytes
Cav1.2 = Cav1.2 (Homo sapiens, UniProt Q13936); experiment: Inhibition of human Cav1.2 expressed in CHO cells at 10 uM by QPatch HT assay; conditions: CHO cells expressing human Cav1.2
CYP2C9 = CYP2C9 (Homo sapiens, UniProt P11712); experiment: Time dependent inhibition of CYP2C9 in human liver microsomes using s-warfarin as substrate incubated for 30 mins by LC-MS/MS analysis
Cytochrome P450 2C9 = Cytochrome P450 2C9 (Homo sapiens, UniProt P11712); experiment: Reversible inhibition of CYP2C9 in human liver microsomes using (s)-warfarin as substrate preincubated for 30 mins followed by NADPH addition by LC/MS/MS analysis
in vitro [23] = conditions: cynomolgus monkey, cynomolgus monkey hepatocytes
Nav1.5 = Nav1.5 (Homo sapiens, UniProt Q14524); experiment: Inhibition of human Nav1.5 expressed in CHO cells at 10 uM by QPatch HT assay; conditions: CHO cells expressing human Nav1.5
Estrogen receptor [24] = target: T3, Estrogen receptor
Description: Antagonist activity at estrogen receptor in human T47D cells incubated for 18 hrs by ultra high sensitivity luminescence reporter gene assay

in vitro [25] = conditions: cynomolgus monkey, cynomolgus monkey liver microsomes
CYP3A4 [26] = target: T1, CYP3A4; experiment: Time dependent inhibition of CYP3A4 in human liver microsomes using testosterone as substrate incubated for 10 mins by LC-MS/MS analysis
in vivo [27] = conditions: Sprague-Dawley, rat, iv, 1 mg/kg
[28] = Apparent permeability in MDCK cells across apical to basolateral side at 10 uM incubated for 3 hrs by LC-MS/MS analysis; conditions: dog
CYP2C19 = CYP2C19 (Homo sapiens, UniProt P33261); experiment: Time dependent inhibition of CYP2C19 in human liver microsomes using (s)-mephenytoin as substrate incubated for 40 mins by LC-MS/MS analysis
[29] = Kinetic solubility of compound at pH 7.4; conditions: buffer
Cytochrome P450 2D6 = Cytochrome P450 2D6 (Homo sapiens, UniProt P10635); experiment: Reversible inhibition of CYP2D6 in human liver microsomes using dextromethorphan as substrate preincubated for 10 mins followed by NADPH addition by LC/MS/MS analysis
in vivo [30] = conditions: beagle, dog, iv, 1 mg/kg
[31] = Volume of distribution at steady state in cynomolgus monkey at 1 mg/kg, iv or po measured after 0.033 to 24 hrs by LC/MS/MS analysis; conditions: in vivo
in vivo [32] = conditions: Sprague-Dawley, rat, po, 1 mg/kg

T1 sequence (P08684 whole entry): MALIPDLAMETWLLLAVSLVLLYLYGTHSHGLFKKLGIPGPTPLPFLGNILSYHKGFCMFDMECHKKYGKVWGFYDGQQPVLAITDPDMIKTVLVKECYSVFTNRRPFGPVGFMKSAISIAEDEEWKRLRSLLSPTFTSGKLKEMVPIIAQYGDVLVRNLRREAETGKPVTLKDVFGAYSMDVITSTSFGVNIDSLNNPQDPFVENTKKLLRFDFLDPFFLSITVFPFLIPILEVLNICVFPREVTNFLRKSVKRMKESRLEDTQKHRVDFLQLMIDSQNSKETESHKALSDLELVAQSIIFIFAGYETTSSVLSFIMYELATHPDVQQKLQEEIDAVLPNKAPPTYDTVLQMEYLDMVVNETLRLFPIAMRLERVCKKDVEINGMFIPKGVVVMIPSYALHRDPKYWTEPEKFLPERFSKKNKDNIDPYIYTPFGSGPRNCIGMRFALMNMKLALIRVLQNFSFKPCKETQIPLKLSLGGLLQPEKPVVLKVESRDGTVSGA
Sequence of Cav1.2 (Q13936 whole entry): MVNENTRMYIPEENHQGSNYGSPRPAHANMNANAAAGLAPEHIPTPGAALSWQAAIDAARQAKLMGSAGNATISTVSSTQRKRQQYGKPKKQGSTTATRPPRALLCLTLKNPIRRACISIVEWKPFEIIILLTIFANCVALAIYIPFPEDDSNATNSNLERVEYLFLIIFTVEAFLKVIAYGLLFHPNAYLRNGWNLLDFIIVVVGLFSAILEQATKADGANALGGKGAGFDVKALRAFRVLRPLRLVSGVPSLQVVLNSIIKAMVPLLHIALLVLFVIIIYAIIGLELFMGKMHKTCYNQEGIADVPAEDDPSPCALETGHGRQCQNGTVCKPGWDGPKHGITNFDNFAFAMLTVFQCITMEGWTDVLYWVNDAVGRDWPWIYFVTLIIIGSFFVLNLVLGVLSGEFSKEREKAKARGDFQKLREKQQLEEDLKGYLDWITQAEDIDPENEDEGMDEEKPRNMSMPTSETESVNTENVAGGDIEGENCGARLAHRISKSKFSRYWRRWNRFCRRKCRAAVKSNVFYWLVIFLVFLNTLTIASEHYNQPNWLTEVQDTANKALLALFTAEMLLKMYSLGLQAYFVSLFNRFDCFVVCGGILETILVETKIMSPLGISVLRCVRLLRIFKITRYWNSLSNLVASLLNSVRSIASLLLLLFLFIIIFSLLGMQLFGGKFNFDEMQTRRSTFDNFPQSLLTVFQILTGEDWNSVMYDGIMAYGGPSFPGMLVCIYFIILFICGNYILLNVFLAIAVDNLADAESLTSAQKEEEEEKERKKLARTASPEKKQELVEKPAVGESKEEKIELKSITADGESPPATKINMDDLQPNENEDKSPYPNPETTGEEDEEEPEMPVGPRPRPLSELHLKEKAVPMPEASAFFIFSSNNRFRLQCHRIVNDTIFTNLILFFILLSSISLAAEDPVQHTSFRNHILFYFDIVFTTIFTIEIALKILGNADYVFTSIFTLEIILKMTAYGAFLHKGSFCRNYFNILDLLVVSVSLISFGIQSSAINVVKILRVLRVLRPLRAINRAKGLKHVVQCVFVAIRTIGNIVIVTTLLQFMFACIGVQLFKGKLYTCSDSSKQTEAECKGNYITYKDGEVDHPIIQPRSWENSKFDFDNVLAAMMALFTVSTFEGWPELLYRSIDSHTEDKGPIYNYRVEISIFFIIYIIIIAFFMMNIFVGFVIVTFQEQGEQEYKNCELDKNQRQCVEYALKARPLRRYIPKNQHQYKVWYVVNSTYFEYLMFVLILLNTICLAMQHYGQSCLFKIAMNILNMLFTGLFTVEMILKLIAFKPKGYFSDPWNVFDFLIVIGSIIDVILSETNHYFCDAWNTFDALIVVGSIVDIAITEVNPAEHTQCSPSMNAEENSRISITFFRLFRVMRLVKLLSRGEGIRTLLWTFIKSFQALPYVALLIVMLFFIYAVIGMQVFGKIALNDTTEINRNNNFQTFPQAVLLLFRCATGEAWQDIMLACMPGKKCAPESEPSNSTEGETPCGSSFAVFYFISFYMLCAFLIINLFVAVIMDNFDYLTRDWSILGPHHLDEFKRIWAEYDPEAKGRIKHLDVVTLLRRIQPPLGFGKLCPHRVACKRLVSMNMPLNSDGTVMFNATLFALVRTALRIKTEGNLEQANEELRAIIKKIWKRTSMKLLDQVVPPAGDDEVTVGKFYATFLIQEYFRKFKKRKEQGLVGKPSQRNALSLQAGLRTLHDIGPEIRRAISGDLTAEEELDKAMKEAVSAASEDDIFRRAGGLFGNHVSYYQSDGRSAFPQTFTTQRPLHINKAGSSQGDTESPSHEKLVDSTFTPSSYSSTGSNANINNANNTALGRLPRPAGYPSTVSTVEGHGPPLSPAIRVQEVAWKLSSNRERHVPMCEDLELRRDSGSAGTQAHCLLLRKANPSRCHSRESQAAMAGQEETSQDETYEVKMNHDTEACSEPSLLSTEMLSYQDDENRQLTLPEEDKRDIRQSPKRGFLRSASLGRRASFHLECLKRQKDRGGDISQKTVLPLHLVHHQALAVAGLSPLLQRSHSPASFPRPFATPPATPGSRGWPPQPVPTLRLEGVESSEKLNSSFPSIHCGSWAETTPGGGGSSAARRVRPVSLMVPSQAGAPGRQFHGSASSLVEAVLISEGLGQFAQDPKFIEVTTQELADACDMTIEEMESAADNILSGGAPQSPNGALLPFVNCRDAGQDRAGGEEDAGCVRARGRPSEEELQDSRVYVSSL
Sequence of CYP2C19 (P33261 whole entry): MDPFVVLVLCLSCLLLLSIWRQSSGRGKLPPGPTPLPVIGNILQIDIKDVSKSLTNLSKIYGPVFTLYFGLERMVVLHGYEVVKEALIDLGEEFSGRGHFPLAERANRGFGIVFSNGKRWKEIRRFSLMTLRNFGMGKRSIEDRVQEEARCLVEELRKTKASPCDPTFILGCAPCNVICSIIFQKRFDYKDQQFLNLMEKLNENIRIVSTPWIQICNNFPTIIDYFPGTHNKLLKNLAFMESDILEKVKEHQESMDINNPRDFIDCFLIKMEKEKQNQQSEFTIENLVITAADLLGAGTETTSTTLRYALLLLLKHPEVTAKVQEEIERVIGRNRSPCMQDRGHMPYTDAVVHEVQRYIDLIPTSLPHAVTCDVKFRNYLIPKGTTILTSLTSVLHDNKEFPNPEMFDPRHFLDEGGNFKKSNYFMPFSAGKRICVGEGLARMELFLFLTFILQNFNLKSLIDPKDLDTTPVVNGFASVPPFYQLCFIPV
Sequence of Cytochrome P450 2C19 (P33261 whole entry): as above
Sequence of Voltage-gated inwardly rectifying potassium channel KCNH2 (Q12809 whole entry): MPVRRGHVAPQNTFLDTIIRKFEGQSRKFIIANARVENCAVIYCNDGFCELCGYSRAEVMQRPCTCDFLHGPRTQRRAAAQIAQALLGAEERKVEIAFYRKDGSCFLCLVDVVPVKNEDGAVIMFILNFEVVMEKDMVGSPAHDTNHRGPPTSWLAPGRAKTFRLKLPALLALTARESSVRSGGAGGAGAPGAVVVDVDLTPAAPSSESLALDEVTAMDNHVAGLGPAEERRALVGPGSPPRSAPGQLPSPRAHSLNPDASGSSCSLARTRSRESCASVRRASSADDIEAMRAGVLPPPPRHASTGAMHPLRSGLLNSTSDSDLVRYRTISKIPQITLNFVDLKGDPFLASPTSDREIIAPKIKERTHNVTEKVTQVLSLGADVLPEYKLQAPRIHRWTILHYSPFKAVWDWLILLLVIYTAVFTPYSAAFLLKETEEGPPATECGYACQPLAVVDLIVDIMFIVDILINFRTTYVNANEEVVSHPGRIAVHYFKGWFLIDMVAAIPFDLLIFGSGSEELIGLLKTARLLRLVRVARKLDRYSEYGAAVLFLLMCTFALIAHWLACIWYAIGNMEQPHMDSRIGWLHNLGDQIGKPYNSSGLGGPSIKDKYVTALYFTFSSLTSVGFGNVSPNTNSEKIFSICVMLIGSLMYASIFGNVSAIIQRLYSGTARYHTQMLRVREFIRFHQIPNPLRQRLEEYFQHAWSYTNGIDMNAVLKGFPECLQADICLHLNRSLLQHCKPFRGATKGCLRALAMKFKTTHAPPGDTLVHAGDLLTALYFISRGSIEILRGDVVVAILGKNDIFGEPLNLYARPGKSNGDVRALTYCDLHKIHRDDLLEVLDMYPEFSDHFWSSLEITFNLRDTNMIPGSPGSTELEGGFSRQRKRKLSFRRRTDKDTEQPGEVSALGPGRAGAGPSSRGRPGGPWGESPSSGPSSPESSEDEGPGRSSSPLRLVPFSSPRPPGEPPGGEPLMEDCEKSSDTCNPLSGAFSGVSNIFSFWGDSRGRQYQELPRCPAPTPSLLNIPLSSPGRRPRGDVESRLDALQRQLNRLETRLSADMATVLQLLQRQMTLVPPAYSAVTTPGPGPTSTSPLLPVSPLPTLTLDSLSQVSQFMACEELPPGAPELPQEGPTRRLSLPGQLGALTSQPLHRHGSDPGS

inhibition at 10 min (CYP2D6): 8.1%
Vd [1]: 15 L/kg
inhibition at 10 min (CYP3A4 [2]): -0.9%
Vd [3]: 5.1 L/kg
bioavailability (in vivo [4]): 65%
CLint scaled at 1 h, 1 µM (in vitro [6]): 52 mL/min/kg
half-life [7]: 24 h
IC50 (Cytochrome P450 2C19): > 10000 nM
half-life [8]: 8 h
bioavailability (in vivo [9]): 17%
CLint scaled at 1 h, 1 µM (in vitro [10]): 11 mL/min/kg
inhibition at 0.5 h (CYP1A2): 1%
CLint scaled at 1 h (in vitro [11]): < 7.8 mL/min/kg
CLint scaled at 1 h, 1 µM (in vitro [12]): 13 mL/min/kg
DC50 (Estrogen receptor [13]): 0.03 nM
bioavailability (in vivo [14]): 55%
EC50 (MCF7): 0.4 nM
half-life [15]: 7.3 h
CLint scaled at 1 h (in vitro [16]): 23 mL/min/kg
CLint scaled at 1 h (in vitro [17]): 11 mL/min/kg
clearance (in vivo [18]): 19 mL/min/kg
CLint scaled at 1 h, 1 µM (in vitro [19]): 19 mL/min/kg
bioavailability (in vivo [20]): 29%
logD [21]: 2.9
CLint scaled at 1 h (in vitro [22]): 33 mL/min/kg
inhibition at 0.5 h (CYP2C9): 19%
IC50 (Cytochrome P450 2C9): > 10000 nM
CLint scaled at 1 h (in vitro [23]): 31 mL/min/kg
IC50 (Estrogen receptor [24]): 0.05 nM
CLint scaled at 1 h, 1 µM (in vitro [25]): 22 mL/min/kg
inhibition at 10 min (CYP3A4 [26]): -4%
clearance (in vivo [27]): 21 mL/min/kg
Papp A→B at 3 h, 10 µM [28]: 3 ×10⁻⁶ cm/s
inhibition at 40 min (CYP2C19): 1.2%
solubility kinetic [29]: 135 µM (≈ 70.5 µg/mL)
IC50 (Cytochrome P450 2D6): > 10000 nM
clearance (in vivo [30]): 3 mL/min/kg
Vd [31]: 9.4 L/kg
bioavailability (in vivo [32]): 41%
SMILES: C[C@@H]1Cc2c([nH]c3ccccc23)[C@@H](c2c(F)cc(NC3CN(CCCF)C3)cc2F)N1CC(F)(F)CO [GIREDESTRANT]
IC50 [5]: 6100 nM
inhibition at 10 µM (Cav1.2): 15.7%
inhibition at 10 µM (Nav1.5): 16.7%
